CC(C)(c1cc(Br)c(O)c(Br)c1)c1cc(Br)c(O)c(Br)c1
solubility (mole fraction)
Conditions | in ethanol | in ethyl acetate | in isopropanol | in methanol | in n-butanol | in n-butyl acetate | in n-pentanol | in n-propanol | in sec-butanol
298.15 K | 0.0511 | 0.139 | 0.0242 | 0.0499 | 0.0511 | 0.142 | 0.0567 | 0.0452 | 0.0262
303.15 K | 0.0516 | 0.139 | 0.0259 | 0.0511 | 0.0522 | 0.142 | 0.058 | 0.046 | 0.0288
308.15 K | 0.0534 | 0.141 | 0.0284 | 0.0524 | 0.0542 | 0.144 | 0.0596 | 0.0476 | 0.0321
313.15 K | 0.0558 | 0.144 | 0.031 | 0.0546 | 0.0573 | 0.146 | 0.0609 | 0.0502 | 0.0364
318.15 K | 0.0577 | 0.147 | 0.0343 | 0.0564 | 0.0602 | 0.148 | 0.0634 | 0.0522 | 0.0399
323.15 K | 0.0616 | 0.152 | 0.0381 | 0.0585 | 0.0642 | 0.151 | 0.0669 | 0.0553 | 0.045
328.15 K | 0.0642 | 0.157 | 0.0435 | 0.0615 | 0.0678 | 0.155 | 0.0705 | 0.059 | 0.0502
333.15 K | 0.0693 | 0.161 | 0.0484 | – | 0.0717 | 0.159 | 0.0752 | 0.063 | 0.056
